These results are taken from patent US9546145B2, “Combination therapy for the treatment of chronic renal failure with an angiotensin II receptor antagonist and beraprost” (Toray Industries, Inc., priority 2003, dated 2017).

Structures can show the parent of a compound that is named as a salt.

In assay [1] the test system is WKY rats with nephritis induced by rabbit anti-rat glomerular basement membrane antiserum. Description: nephritis-induced renal failure model in rats, mortality / survival rate. The assay is classed as in vivo. Particulars: Example 7, FIG. 2; candesartan cilexetil 10 mg/kg OAD and/or beraprost sodium 100 μg/kg BID; compared with the control group. The method, then: To 9-week old WKY rats, rabbit anti-rat glomerular basement membrane antiserum was administered to induce nephritis. At two weeks after administering the antiserum, the animals were divided into the following 4 groups and medication was started. • 1) Control Group: 0.5% CMC(OAD)+distilled water (BID), n=11 • 2) Candesartan Group (Comparative Example): candesartan cilexetil 10 mg/kg (OAD)+distilled water (BID), n=11 • 3) BPS Group (Comparative Example): 0.5% CMC(OAD)+beraprost sodium 100 μg/kg (BID), n=11 • 4) Candesartan+BPS Group (this disclosure): candesartan cilexetil 10 mg/kg (OAD)+beraprost sodium 100 μg/kg (BID), n=12

The test system of assay [2] is glomerular nephritis model in rats. Particulars: Kidney Int 1998, 53(5) 1314-20; cited from earlier work.
Assay [3] has as its system WKY rats with nephritis induced by rabbit anti-rat glomerular basement membrane antiserum (renal failure stage). The assay can be described thus: nephritis-induced renal failure model in rats, blood creatinine level. Particulars: for effect to suppress the progress of nephritis (raise in the blood creatinine level) / effect to suppress the progress of nephropathy (blood creatinine level): Example 1, FIG. 1; for effect to suppress the progress of nephritis (raise in the blood creatinine level): beraprost sodium 100 μg/kg BID and/or candesartan cilexetil 10 mg/kg OAD; for effect to suppress the progress of nephritis (raise in the blood creatinine level) / effect to suppress the progress of renal failure: compared with the control group; for effect to suppress the progress of nephropathy (blood creatinine level): increased dosage alone: beraprost sodium 300 μg/kg BID or candesartan cilexetil 30 mg/kg OAD, compared with BPS100+candesartan10 group; for blood creatinine level at 7 weeks after induction: started 2 weeks after antiserum. The assay is classed as in vivo. The method, then:
After the start of the medication, blood was collected at one week intervals, and blood creatinine level was measured. To 9-week old WKY rats, rabbit anti-rat glomerular basement membrane antiserum was administered to induce nephritis. […] To 9-week old WKY rats, rabbit anti-rat glomerular basement membrane antiserum was administered to induce nephritis. […] At six weeks after the induction, blood creatinine level was measured to assess the progress of renal failure. […] To 9-week old WKY rats, rabbit anti-rat glomerular basement membrane antiserum was administered to induce nephritis. […] After the start of the medication, blood was collected at one week intervals, and blood creatinine level was measured. The data were plotted taking the reciprocal of the blood creatinine level measured for five weeks after the start of the medication along the ordinate and taking the time along the abscissa, and the slope of the regression line was defined as the rate of progress of renal failure of each animal. To 9-week old WKY rats, rabbit anti-rat glomerular basement membrane antiserum was administered to induce nephritis. […] After the start of the medication, blood was collected at one week intervals, and blood creatinine level was measured. The data were plotted taking the reciprocal of the blood creatinine level measured for five weeks after the start of the medication along the ordinate and taking the time along the abscissa, and the slope of the asymptote was defined as the rate of progress of renal failure of each animal. To 9-week old WKY rats, rabbit anti-rat glomerular basement membrane antiserum was administered to induce nephritis. […] After the start of the medication, blood was collected at one week intervals, and blood creatinine level was measured. The data were plotted taking the reciprocal of the blood creatinine level measured for six weeks after the start of the medication along the ordinate and taking the time along the abscissa, and the slope of the asymptote was defined as the rate of progress of renal failure of each animal.

For assay [4], the system named is patients suffering from diabetic nephropathy. Particulars: Nephron 2002, 92(4): 788-96; cited from earlier work.
For assay [5] the test system is unchanged. Particulars: N Engl J Med 2001, 345(12): 861-9; cited from earlier work.
The test system of assay [6] is diabetic nephritis induced by streptozotocin in rats. The note with it: J Hypertens Suppl 1993; 11 Suppl 5: S208-9; cited from earlier work.
The test system of assay [7] is renal dysfunction induced by uninephrectomy and by loading high sodium and high protein. Particulars: Am J Hypertens 1997 10: 209-16; cited from earlier work.
Assay [8] relates to diabetes mellitus model in rats. Particulars: each drug individually or in combination, versus control group; Am J Hypertens 1997 10: 202-208; cited from earlier work.
For assay [9], the system named is anti-Thyl-induced nephritis model. Particulars: Am J Pathol 1993; 142(2): 441-50; cited from earlier work.
A further assay deals with diabetic nephropathy. Particulars: compared with blood pressure control by a calcium antagonist; N Engl J Med 2001; 345(12): 851-60; cited from earlier work.
Setting [10] is: Example 2, during medication, telmisartan 40 mg/kg OAD and/or beraprost sodium 100 μg/kg BID.
Setting [11] is: Example 2, telmisartan 40 mg/kg OAD and/or beraprost sodium 100 μg/kg BID, mean ± S.E.
Where [12] appears, read: Example 3, losartan 30 mg/kg BID and/or beraprost sodium 100 μg/kg BID.
The mark [13] stands for this setting: Example 3, losartan 30 mg/kg BID and/or beraprost sodium 100 μg/kg BID, mean ± S.E.
Where [14] appears, read: Example 4, enalapril maleate 10 mg/kg OAD and/or beraprost sodium 100 μg/kg BID.
The mark [15] stands for this setting: Example 4, enalapril maleate 10 mg/kg OAD and/or beraprost sodium 100 μg/kg BID, mean ± S.E.
[16] abbreviates: Example 4, slope of regression line of reciprocal blood creatinine over five weeks of medication, enalapril maleate 10 mg/kg OAD and/or beraprost sodium 100 μg/kg BID, mean ± S.E.
Setting [17] is: Example 5, lisinopril 10 mg/kg OAD and/or beraprost sodium 100 μg/kg BID.
[18] abbreviates: Example 5, lisinopril 10 mg/kg OAD and/or beraprost sodium 100 μg/kg BID, mean ± S.E.
[19] abbreviates: Example 5, slope of reciprocal blood creatinine over five weeks of medication, lisinopril 10 mg/kg OAD and/or beraprost sodium 100 μg/kg BID, mean ± S.E.
Setting [20] is: Example 6, perindopril erbumine 10 mg/kg OAD and/or beraprost sodium 100 μg/kg BID.
Where [21] appears, read: Example 6, slope of reciprocal blood creatinine over six weeks of medication, perindopril erbumine 10 mg/kg OAD and/or beraprost sodium 100 μg/kg BID.

Turning to `CC#CCC(C)[C@H](O)/C=C/[C@@H]1[C@H]2c3cccc(CCCC(=O)[O-])c3O[C@H]2C[C@H]1O.[Na+]` (stereo partly drawn) [BPS, beraprost sodium], in assay [1], the “mortality rate / survival rate” value is given as “no difference”. The urinary protein entry in assay [2] and in assay [4] was “decreases urinary protein” each time. Moreover, in assay [3], the “effect to suppress the progress of nephritis (raise in the blood creatinine level)” value is on record as “almost no difference”. In assay [3], the “effect to suppress the progress of nephropathy (blood creatinine level)” value is “smaller than that observed in BPS100+candesartan10 group”. Further, the “effect to suppress the progress of renal failure” value (from here on “effect … of renal failure”) in [3] (setting [10]) is listed as “almost no difference”; in assay [3] (setting [12]), “no difference”; in assay [3] (setting [14]), “no difference”; in assay [3] (setting [17]), “almost no difference”; in assay [3] (setting [20]) it was “tendency to suppress the progress of renal failure”. Moreover, the “blood creatinine level at 7 weeks after induction” value in assay [3] (setting [11]) is recorded as 1.56 ± 0.76 mg/dL. In addition, the “blood creatinine level at 6 weeks after induction” value (“blood creatinine level at 6 weeks” below) in assay [3] (setting [13]) was 0.93 ± 0.18 mg/dL; in [3] (setting [15]) it was 0.93 ± 0.18 mg/dL; in assay [3] (setting [18]), 1.49 ± 0.59 mg/dL; in assay [3] (setting [20]) it was 0.93 ± 0.18 mg/dL. Besides, the “rate of progress of renal failure” value in assay [3] (setting [16]) was determined as 0.32 ± 0.04 dL/mg × week; in assay [3] (setting [19]), 0.37 ± 0.07 dL/mg × week; in [3] (setting [21]) it was 0.29 ± 0.03 dL/mg × week.
With `CCOC(=O)[C@H](CCc1ccccc1)N[C@@H](C)C(=O)N1CCC[C@H]1C(=O)O` [Enalapril, enalapril maleate], the “effect … of renal failure” value in assay [3] (setting [14]) is “no difference”. In addition, in assay [3] (setting [15]), the “blood creatinine level at 6 weeks” value was determined as 1.83 ± 0.44 mg/dL. The “rate of progress of renal failure” value in assay [3] (setting [16]) came out at 0.41 ± 0.04 dL/mg × week.
`NCCCC[C@H](N[C@@H](CCc1ccccc1)C(=O)O)C(=O)N1CCC[C@H]1C(=O)O` [Lisinopril, lisinopril]: the “effect … of renal failure” value in assay [3] (setting [17]) is reported as “almost no difference”. Moreover, in assay [3] (setting [18]), the “blood creatinine level at 6 weeks” value is on record as 1.20 ± 0.34 mg/dL. Besides, in assay [3] (setting [19]), the “rate of progress of renal failure” value is listed as 0.39 ± 0.08 dL/mg × week.
Regarding `CCCCc1nc(Cl)c(CO)n1Cc1ccc(-c2ccccc2-c2nn[nH]n2)cc1` [Losartan, losartan], the “risk-lowering rate (doubling time of creatinine, dialysis, complicated risk of death)” value in assay [5] is given as 16.1%. For the same molecule, the “effect … of renal failure” value in assay [3] (setting [12]) is given as “no difference”. Further, in assay [3] (setting [13]), the “blood creatinine level at 6 weeks” value turned out to be 1.94 ± 0.61 mg/dL.
Take `CCC[C@H](N[C@@H](C)C(=O)N1[C@H](C(=O)O)C[C@@H]2CCCC[C@@H]21)C(=O)OCC` [Perindopril, perindopril erbumine]: in assay [3] (setting [20]), the “blood creatinine level at 6 weeks” value is recorded as 1.09 ± 0.42 mg/dL and the “effect … of renal failure” value was “tendency to suppress the progress of renal failure”. In addition, the “rate of progress of renal failure” value in assay [3] (setting [21]) was 0.30 ± 0.05 dL/mg × week.
On to `CCCc1nc2c(C)cc(-c3nc4ccccc4n3C)cc2n1Cc1ccc(-c2ccccc2C(=O)O)cc1` [Telmisartan, telmisartan], for which the “effect … of renal failure” value in [3] (setting [10]) was “suppressed”. In addition, in assay [3] (setting [11]), the “blood creatinine level at 7 weeks after induction” value was 0.93 ± 0.43 mg/dL and the “blood creatinine level at 8 weeks after induction (1 week after the end of the medication)” value is listed as 1.18 ± 0.80 mg/dL. Also, the “progress of renal failure / blood creatinine level at one week after the end of the medication” value in assay [3] (Example 2, telmisartan 40 mg/kg OAD with or without beraprost sodium 100 μg/kg BID) is “renal failure was progressed”.
As for `CCOc1nc2cccc(C(=O)OC(C)OC(=O)OC3CCCCC3)c2n1Cc1ccc(-c2ccccc2-c2nn[nH]n2)cc1` (stereo not drawn) [candesartan, candesartan cilexetil], the “mortality rate / survival rate” value in assay [1] is reported as “no difference”. In addition, in [3], the “effect to suppress the progress of nephritis (raise in the blood creatinine level)” value is listed as “almost no difference” and the “effect to suppress the progress of nephropathy (blood creatinine level)” value is given as “smaller than that observed in BPS100+candesartan10 group”.
As to `CCC#CC[C@H](C)[C@H](O)C#C[C@@H]1[C@H]2C/C(=C/COCC(=O)O)C[C@H]2C[C@H]1O` [cicaprost], the “suppression of diabetic nephritis” value in assay [6] was “suppressed”. In addition, the “suppression of renal dysfunction” value in [7] is recorded as “suppressed”. The “renal function parameters such as urinary protein, damage of renal tissue” value in assay [8] was “less severe”.
Consider `CC#CCC(C)[C@H](O)/C=C/[C@@H]1[C@H]2C/C(=C/CCCC(=O)O)C[C@H]2C[C@H]1O` (stereo partly drawn) [iloprost], for which the urinary protein result in assay [9] is “decreased urinary protein”.
With `CCCCC1=NC2(CCCC2)C(=O)N1Cc1ccc(-c2ccccc2-c2nnn[nH]2)cc1` [irbesartan], in the assay with diabetic nephropathy, the “effect of suppressing the progress of diabetic nephropathy” value was “superior”.
